What follows are compounds tested on TNFα production in RAW 264.7 macrophage cell line (assay: Mouse TNF alpha quantification assay (LPS-stimulated macrophages, ELISA)). Conditions: RAW264.7, RAW 264.7 murine leukemia virus transformed macrophage cell lines, LPS stimulation, read-out: TNF-α % Inhibition at 30 μM.
Type: cell-based

Structure (SMILES)	inhibition at 30 µM [%]
Cc1ccccc1C1CN(C(=O)c2csc3c(O)nc(-c4ccccn4)nc23)CCN1 (stereo not shown) [drawing 2199]	1 to 25
CCOc1cc(C(=O)Oc2c(C)ccc(C)c2C)cc(OCC)c1OCC [drawing 2057]	1 to 25
CS(=O)(=O)N1CCCc2cc(C(=O)N3CCCc4c(O)nc(-c5ccccn5)nc43)ccc21 [drawing 2077]	1 to 25
COC(=O)c1cccc(CN2CCC(CSc3ccccc3)C2)c1C#N (stereo not shown) [drawing 2046]	0
Oc1nc(-c2ccccn2)nc2c(-c3ccsc3)csc12 [drawing 2267]	76 to 100
O=C(Cn1c(=O)cnc2ccccc21)Nc1nc(-c2ccccn2)cs1 [drawing 2010]	0
O=C(c1csc2c(O)nc(-c3ccccn3)nc12)N1CCOC(c2cccc(F)c2)C1 (stereo not shown) [drawing 2170]	1 to 25

The compounds below were run on IL6 production in RAW 264.7 macrophage cell line (assay: Mouse IL6 quantification assay (LPS-stimulated macrophages, ELISA)). Conditions: RAW264.7, RAW 264.7 murine leukemia virus transformed macrophage cell lines, LPS stimulation, read-out: IL-6 % Inhibition at 30 μM.
Type: cell-based

Structure (SMILES)	inhibition at 30 µM [%]
Cc1ccccc1C1CN(C(=O)c2csc3c(O)nc(-c4ccccn4)nc23)CCN1 (stereo not shown) [drawing 2199]	76 to 100
CCOc1cc(C(=O)Oc2c(C)ccc(C)c2C)cc(OCC)c1OCC [drawing 2057]	51 to 75
CS(=O)(=O)N1CCCc2cc(C(=O)N3CCCc4c(O)nc(-c5ccccn5)nc43)ccc21 [drawing 2077]	76 to 100
COC(=O)c1cccc(CN2CCC(CSc3ccccc3)C2)c1C#N (stereo not shown) [drawing 2046]	26 to 50
Oc1nc(-c2ccccn2)nc2c(-c3ccsc3)csc12 [drawing 2267]	76 to 100
O=C(Cn1c(=O)cnc2ccccc21)Nc1nc(-c2ccccn2)cs1 [drawing 2010]	51 to 75
O=C(c1csc2c(O)nc(-c3ccccn3)nc12)N1CCOC(c2cccc(F)c2)C1 (stereo not shown) [drawing 2170]	26 to 50

The compounds below were run against KRas G12D/Q61H double mutant (Homo sapiens (Human), UniProt P01116, G12D/Q61H) (assay: Ras GTP binding domain inhibition assay (labeled GTP)). Conditions: 20 μM compound; KRas G12D/Q61H double mutant; read-out: % Inhibition at 20 μM of K-Ras mutant and wild-type protein, KRas G12D Q61H.
Sequence of KRas G12D/Q61H double mutant (P01116-2 other isoform, or with tags, fused parts or gaps G12D/Q61H): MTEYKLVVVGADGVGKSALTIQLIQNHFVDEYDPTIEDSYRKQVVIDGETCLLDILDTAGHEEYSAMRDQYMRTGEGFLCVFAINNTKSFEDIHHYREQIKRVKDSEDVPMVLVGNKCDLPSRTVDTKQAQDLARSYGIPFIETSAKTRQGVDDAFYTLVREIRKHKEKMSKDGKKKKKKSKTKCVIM
How it was run: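 Inhibition of labeled GTP binding is measured on immobilized His-KRas protein in Tris buffer pH 7.5 with 1 mM MgCl2 and 1 mM DTT.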

inhibition at 20 µM [%]	Structure (SMILES)
1 to 25	O=c1c(Cl)cc(C(F)(F)F)cn1Cc1csc(COc2ccc(Cl)cc2)n1
25 to 50	CC[S+]([O-])c1ccccc1C(=O)OCc1ccc(-c2ccccc2C#N)cc1 (stereo not shown)
25 to 50	CCC(C)N(C(=O)CS(=O)(=O)c1nc(-c2ccccc2)cs1)C(C)CC (stereo not shown)
25 to 50	CC(C)(C)OC(=O)N1CCCN1c1nc(-c2cccs2)nc2ccccc12
25 to 50	CCOc1ccc(-c2nc(CSc3nc4ccccc4n3CCOC)cs2)cc1OC
25 to 50	COc1ccc(CN(C(C)C2CC2)S(=O)(=O)c2cccs2)cc1 (stereo not shown)
25 to 50	CC1CC1COC(=O)c1sccc1S(=O)(=O)N1CCSCC1 (stereo not shown)
1 to 25	CN(Cc1ccc(S(=O)(=O)N(C)C)o1)c1ccccc1-c1ccccc1
1 to 25	Cc1nn(Cc2ccccc2Cl)c(C)c1CN(C)S(=O)(=O)c1cccs1

Same assay, conditions: 20 μM compound; read-out: % Inhibition at 20 μM KRas G12D Q61H

Structure (SMILES)	inhibition at 20 µM [%]
CCCOc1ccc(C(F)(F)F)cc1NCc1ncc(C)o1	25 to 50
Cc1noc(CN2CCOC(c3nc(-c4ccccc4)cs3)C2)n1 (stereo not shown)	1 to 25
O=C(Nc1nnc(-c2ccccn2)[nH]1)c1cccc(Nc2ncccn2)c1	1 to 25
N#Cc1ccccc1CN1CCN(c2cccc(C(F)(F)F)c2)CC1	1 to 25
O=S(=O)(NC(c1ccccc1)c1ccccn1)c1cc(C(F)(F)F)ccc1Cl (stereo not shown)	25 to 50

The remaining lines, values ahead:

inhibition at 20 µM [%]	Structure (SMILES)
1 to 25	COc1ccc(CCNC(=O)c2cc(S(=O)(=O)N3CCOCC3)ccc2OC)cc1OC
1 to 25	N#CC1CN(c2nccc(C(F)(F)F)n2)CCN1Cc1ccccc1 (stereo not shown)
1 to 25	O=C(NCc1ccccn1)c1csc(-c2ccc(Cl)cc2)n1
1 to 25	N#Cc1ccc(CC(=O)Nc2nc(-c3ccccn3)nc3sccc23)cc1 [drawing 2817]
25 to 50	Cc1ccc(S(=O)(=O)Nc2ccc(OS(=O)(=O)N(C)Cc3ccccc3)cc2)cc1

Same assay, conditions: 20 μM; read-out: KRas G12D Q61H % Inh.

Structure (SMILES)	inhibition at 20 µM [%]
O=C(Nc1nnc(-c2ccccn2)[nH]1)c1ccc(NC(=O)c2ccccn2)cc1 [drawing 2528]	51 to 75
O=C(Nc1nnc(-c2ccccn2)[nH]1)C1CCCC(C(F)(F)F)C1 (stereo not shown) [drawing 2518]	51 to 75
CN(CC(=O)Nc1nnc(-c2ccccn2)[nH]1)S(C)(=O)=O [drawing 2496]	51 to 75
CC(Oc1ccccc1Cl)C(=O)Nc1nnc(-c2ccccn2)[nH]1 (stereo not shown) [drawing 2467]	51 to 75
O=C(Cc1ccc2c(c1)OCCO2)Nc1nnc(-c2ccccn2)[nH]1 [drawing 2551]	51 to 75
CS(=O)(=O)c1cccc(C(=O)Nc2nnc(-c3ccccn3)[nH]2)c1	51 to 75
O=C(CCc1cnn(-c2ccccc2)c1)Nc1nnc(-c2ccccn2)[nH]1 [drawing 2450]	51 to 75
Cc1nc(-c2ccccn2)sc1C(=O)Nc1nnc(-c2ccccn2)[nH]1 [drawing 2532]	51 to 75

Second part, the compound after the results:

inhibition at 20 µM [%]	Structure (SMILES)
25 to 50	COC(=O)c1ccc(C(=O)NCC2(c3ccccc3OC)CCCC2)nc1 [drawing 2623]
51 to 75	O=C(Cc1cccs1)Nc1nnc(-c2ccccn2)[nH]1 [drawing 2487]

— patent US10940139B2, “Compounds that interact with the Ras superfamily for the treatment of cancers, inflammatory diseases, rasopathies, and fibrotic disease” (Shy Therapeutics LLC, priority 2017, dated 2021)
